Values of other authors, collected in PubChem BioAssay AID1259409 (Chemical Carcinogenesis Research Information System (CCRIS), 2018).

Test system: rodent chemically induced tumor inhibition, incidence and multiplicity
Assay: CCRIS tumor inhibitor studies

In the case of `Nc1nc2ncc(CNc3ccc(C(=O)N[C@@H](CCC(=O)O)C(=O)O)cc3)nc2c(=O)[nH]1`, the “tumour outcome (control, treated, inhibition, significance)” value (Carcinogen: HYDRAZINE SULFATE, 10034-93-2, Dose [Inhibitor]: 1.1 MG/D IN DIET STARTING 1 WK PRIOR TO ADMINISTRATION OF CARCINOGEN UNTIL END OF EXPERIMENT (STUDY DURATION: APPROXIMAT, Route [Inhibitor]: ORAL, Species: MOUSE, Strain/Sex: SWISS/MALE, FEMALE, Target Tissue: Type of Lesion: LIVER AND LUNG: COMBINED TUMORS, Dose [Carcinogen]: 1.1 MG/D 5 D/WK UNTIL 12 MO OF AGE, Promoter: NONE USED) is listed as 24/29 (83%), 19/31 (61%), 26%, p<0.1, the “tumour outcome (control, treated, inhibition, significance)” value (Carcinogen: ISONIAZID, 54-85-3, Dose [Inhibitor]: 1.1 MG/D SIMULTANEOUS WITH CARCINOGEN 6 D/WK (STUDY DURATION: LIFETIME), Route [Inhibitor]: INTRAGASTRIC, Species: MOUSE, Strain/Sex: SWISS/MALE, Target Tissue: Type of Lesion: LUNG: TUMOR, Dose [Carcinogen]: 1.1 MG/D SIMULTANEOUS WITH INHIBITOR, Promoter: NONE USED) is listed as 15/29 (52%), 0/16 (0%), 100%, p<0.01 and the “tumour outcome (control, treated, inhibition, significance)” value (Carcinogen: N-methyl-N'-nitro-N-nitrosoguanidine, 70-25-7, Dose [Inhibitor]: 0, 5 mg/kg in water for 50 weeks beginning at 6 weeks of age, Route [Inhibitor]: Oral, Species: Rat, Strain/Sex: Wistar/Male, Target Tissue: Type of Lesion: Stomach: Tumor, Dose [Carcinogen]: 100 mg/L in drinking water for 50 weeks) is listed as 5/11 (45.5%), 0/10 (0%), 100% p<0.05.
For `C=C1C[C@H]2[C@@H]3CC[C@H](OC(C)=O)[C@@]3(C)CC[C@@H]2[C@@]2(C)CCC(=O)C=C12`, the “tumour outcome (control, treated, inhibition, significance)” value (Carcinogen: NONE USED, Dose [Inhibitor]: 0, 1 SILASTIC CAPSULE (1.5, 2.0, AND 15 MM IN INNER AND OUTER DIAMETERS AND LENGTH, RESPECTIVELY) REPLACED AFTER 2 MO IN, Route [Inhibitor]: SUBCUTANEOUS IMPLANT, Species: MOUSE, Strain/Sex: SHN/FEMALE, Target Tissue: Type of Lesion: MAMMARY GLAND: TUMOR, Promoter: NONE USED) is given as 100%, 75%, 25%, p<0.01.
In the case of `N#CCc1c[nH]c2ccccc12`, the “tumour outcome (control, treated, inhibition, significance)” value (Carcinogen: 7,12-DIMETHYLBENZ[A]ANTHRACENE, 57-97-6, Dose [Inhibitor]: 0.03 MMOL/G DIET DAILY STARTING 8 D PRIOR TO AND CONTINUING THROUGH CARCINOGEN ADMINISTRATION FOLLOWED BY A 14 WK OBSERV, Route [Inhibitor]: ORAL, Species: RAT, Strain/Sex: SPRAGUE-DAWLEY/FEMALE, Target Tissue: Type of Lesion: MAMMARY GLAND: TUMOR, Dose [Carcinogen]: 12 MG IN 1 ML OLIVE OIL ONCE, Promoter: NONE USED) is given as 73%, 54%, 26%, not significant, the “tumour outcome (control, treated, inhibition, significance)” value (Carcinogen: 7,12-DIMETHYLBENZ[A]ANTHRACENE, 57-97-6, Dose [Inhibitor]: 0.1 MMOL IN 1 ML DIMETHYL SULFOXIDE ONCE 20 HR PRIOR TO CARCINOGEN ADMINISTRATION FOLLOWED BY A 14 WK OBSERVATION PERIOD, Route [Inhibitor]: GAVAGE, Species: RAT, Strain/Sex: SPRAGUE-DAWLEY/FEMALE, Target Tissue: Type of Lesion: MAMMARY GLAND: TUMOR, Dose [Carcinogen]: 12 MG IN 1 ML OLIVE OIL ONCE, Promoter: NONE) is given as 91%, 73%, 20%, not significant and the “tumour outcome (control, treated, inhibition, significance)” value (Carcinogen: 7,12-DIMETHYLBENZ[A]ANTHRACENE, 57-97-6, Dose [Inhibitor]: 0.1 MMOL IN 1 ML DIMETHYL SULFOXIDE ONCE 20 HR PRIOR TO CARCINOGEN ADMINISTRATION FOLLOWED BY A 14 WK OBSERVATION PERIOD, Route [Inhibitor]: GAVAGE, Species: RAT, Strain/Sex: SPRAGUE-DAWLEY/FEMALE, Target Tissue: Type of Lesion: MAMMARY GLAND: TUMOR, Dose [Carcinogen]: 12 MG IN 1 ML OLIVE OIL ONCE, Promoter: NONE USED) is given as 60%, 50%, 17%, not significant. The “tumour outcome (control, treated, inhibition, significance)” value (Carcinogen: BENZO[A]PYRENE, 50-32-8, Dose [Inhibitor]: 0.03 MMOL/G DIET DAILY STARTING AT 63 D OF AGE (8 D PRIOR TO START OF CARCINOGEN TREATMENT) THROUGH 98 D OF AGE FOLLOWED, Route [Inhibitor]: ORAL, Species: MOUSE, Strain/Sex: ICR/FEMALE, Target Tissue: Type of Lesion: FORESTOMACH: TUMOR, Dose [Carcinogen]: 1 MG IN 0.2 ML CORN OIL ADMINISTERED 2/WK FOR 4 WK, Promoter: NONE USED) was 93%, 68%, 27%, not significant and the “tumour outcome (control, treated, inhibition, significance)” value (Carcinogen: BENZO[A]PYRENE, 50-32-8, Dose [Inhibitor]: 0.03 MMOL/G DIET DAILY STARTING AT 63 D OF AGE (8 D PRIOR TO START OF CARCINOGEN TREATMENT) THROUGH 126 D OF AGE FOLLOWE, Route [Inhibitor]: ORAL, Species: MOUSE, Strain/Sex: ICR/FEMALE, Target Tissue: Type of Lesion: FORESTOMACH: TUMOR, Dose [Carcinogen]: 0.3 MG IN 0.2 ML CORN OIL ADMINISTERED 3/WK FOR 8 WK, Promoter: NONE USED) was 100%, 44%, 56%, p<0.01.
